Dmax data for nine molecules are collected here from patent US20250177393A1, “MODULATORS OF MYC FAMILY PROTO-ONCOGENE PROTEIN” (Nalo Therapeutics, priority 2022, published 2025).

Assay [1] has as its target T1, MycC (Homo sapiens, UniProt P01106).
T1 construct: endogenous in cells; host or cells: L363
Description: Degradation of MycC protein in L363 cells (JESS/Western blot). It is filed as cell-based. As to conditions: for Dmax at 1 µM: read-out: % Degradation of MycC (L-363) 24 h, 1 μM; for Dmax at 3 µM: read-out: % Degradation of MycC (L-363) 24 h, 3 μM; for Dmax at 6 µM: read-out: % Degradation of MycC (L-363) 24 h, 6 μM; for Dmax at 0.5 µM: read-out: % Degradation of MycC (L-363) 24 h, 0.5 μM. The procedure:
(§1) For L363 cells (suspension), 1E6 cells were plated into each well of a 6 well plate. For SK—N-BE(2) cells (adherent), 5E5 cells were plated into each well of a 6 well dish. […] All compounds were diluted to 10 mM in DMSO. Cells were treated with the compound for 24 hrs, then for both cell types, media containing cells were removed from wells into a 15 ml centrifuge tube, and remaining adherent SK—N-BE(2) cells were also scraped from the wells into the appropriate tubes. Tubes were centrifuged, cells were washed with PBS then re-centrifuged to pellet cells. A RIPA buffer cocktail was added to the cells on ice for 5 mins. Cell lysates were clarified by centrifugation and stored at −80 degrees until required. BCA assay was performed on each lysate to determine the protein concentration. For validation studies of antibodies, lysates and antibodies were used at a number of concentrations (Lysates: 2, 1, 0.2 mg/ml; Antibodies: 1 in 50, 1 in 200 dilution). Once an appropriate lysate concentration and antibody concentration was determined, samples were screened in the JESS technology (Protein Simple, San Jose, CA—https://www.proteinsimple.com/jess.html). Target protein antibodies (n-myc and c-myc) were detected in the chemiluminescence channel and loading controls (tubulin and GAPDH) were detected using a Near Infra Red (NIR) labeled secondary antibody. For SK—N-EB2 adherent cells, 5E5 cells in 1.9 mls media were plated into 6 well dishes and incubated for 24 hrs. […] Cells were scrapped off the plate, centrifuged, washed with PBS, centrifuged, then a RIPA buffer cocktail added to the cells (100 ul), centrifuged and stored at −80 for later analysis. For L363 suspension cells, 1E6 cells were plated into 24 well dishes (950 ul media) and incubated for 24 hrs. […] Cells were aspirated into tubes, centrifuged, washed with PBS, centrifuged, then a RIPA buffer cocktail added to the cells (100 ul), centrifuged and stored at −80 for later analysis. For Western blot, a BCA (total protein) assay was run on all samples, these were then run in batches of 5 compounds plus control (DMSO) on each Western blot run—n-myc and c-myc were run in separate experiments in the chemiluminescence channel. Both tubulin and GAPDH were run as loading controls in all lanes in the near infra red channel.
(In western blotting, separated proteins are transferred to a membrane and probed.)

Assay [2] deals with T2, MycN (Homo sapiens, UniProt P04198).
T2 construct: endogenous in cells; host or cells: SK-N-BE(2)
T2 sequence (P04198 1-464): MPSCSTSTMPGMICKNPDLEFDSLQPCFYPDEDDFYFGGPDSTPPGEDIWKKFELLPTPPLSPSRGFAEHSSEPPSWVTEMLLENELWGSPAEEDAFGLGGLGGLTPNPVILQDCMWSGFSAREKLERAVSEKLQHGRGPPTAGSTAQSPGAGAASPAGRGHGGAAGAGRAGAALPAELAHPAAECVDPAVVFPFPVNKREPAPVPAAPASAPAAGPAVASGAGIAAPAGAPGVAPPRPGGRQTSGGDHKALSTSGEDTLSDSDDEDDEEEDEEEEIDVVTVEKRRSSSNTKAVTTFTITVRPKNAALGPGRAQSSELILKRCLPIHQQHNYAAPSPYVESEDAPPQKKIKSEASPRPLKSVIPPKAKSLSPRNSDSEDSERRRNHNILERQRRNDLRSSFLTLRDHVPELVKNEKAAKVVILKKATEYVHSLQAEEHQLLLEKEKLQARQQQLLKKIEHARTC
The assay can be described thus: Degradation of MycN protein in SK-N-BE(2) cells (JESS/Western blot). It is filed as cell-based. As to conditions: for Dmax at 0.5 µM: read-out: % Degradation of MycN (SKNBE2) 24 h, 0.5 μM; for Dmax at 1 µM: read-out: % Degradation of MycN (SKNBE2) 24 h, 1 μM; for Dmax at 3 µM: read-out: % Degradation of MycN (SKNBE2) 24 h, 3 μM; for Dmax at 6 µM: read-out: % Degradation of MycN (SKNBE2) 24 h, 6 μM. The procedure:
as §1

Where two headings read alike, the source gives them in different places.

T1 sequence (P01106 whole entry): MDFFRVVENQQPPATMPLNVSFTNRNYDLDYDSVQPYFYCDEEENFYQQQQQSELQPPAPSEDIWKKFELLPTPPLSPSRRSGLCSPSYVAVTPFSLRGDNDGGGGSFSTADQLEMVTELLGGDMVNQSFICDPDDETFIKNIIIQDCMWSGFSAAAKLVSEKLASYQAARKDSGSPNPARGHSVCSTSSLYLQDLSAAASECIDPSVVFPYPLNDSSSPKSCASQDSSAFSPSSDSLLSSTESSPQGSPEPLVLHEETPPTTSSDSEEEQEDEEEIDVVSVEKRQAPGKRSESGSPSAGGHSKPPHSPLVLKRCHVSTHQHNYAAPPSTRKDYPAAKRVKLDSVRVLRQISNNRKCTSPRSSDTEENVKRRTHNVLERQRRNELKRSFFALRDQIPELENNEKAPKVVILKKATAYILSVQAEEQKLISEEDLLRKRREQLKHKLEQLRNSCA

`c1cc(Nc2cc(C3CC3)[nH]n2)nc(NC2CCC3(CC2)CNC3)n1` [Compound 33, N^4-(5-Cyclopropyl-1H-pyrazol-3-yl)-N^2-(2-azaspiro[3.5]nonan-7-yl)pyrimidine-2,4-diamine]: the Dmax at 1 µM in assay [1] (L-363 cells, 24 h, 1 μM) was below 20%; in assay [2] (SKNBE2 cells, 24 h) it was 20 to 49%. The Dmax at 3 µM lay within 20 to 49% in assay [1] (L-363 cells, 24 h, 3 μM) and 80 to 100% in assay [2] (SKNBE2 cells, 24 h, 3 μM). Further, the Dmax at 6 µM in assay [1] (L-363 cells, 24 h, 6 μM) lay within 80 to 100%; in assay [2] (SKNBE2 cells, 24 h, 6 μM) it was 80 to 100%. Besides, in assay [2] (SKNBE2 cells, 24 h, 0.5 μM), the Dmax at 0.5 µM lay within 20 to 49%.

Turning to `CN1CCC(Nc2nccc(Nc3cc(C4CCCC4)[nH]n3)n2)CC1` [Compound 31], in assay [1] (L-363, 24 h), the Dmax at 0.5 µM lay within 50 to 79%, the Dmax at 1 µM lay within 50 to 79%, the Dmax at 3 µM lay within 80 to 100% and the Dmax at 6 µM is 80 to 100%. Further, in assay [2] (SKNBE2, 24 h), the Dmax at 0.5 µM was below 20%, the Dmax at 3 µM was 80 to 100% and the Dmax at 6 µM fell in the range of 80 to 100%.

Consider `Cn1cc(C(=O)N2CC3(CC(Nc4nccc(Nc5cc(C6CCCC6)[nH]n5)n4)C3)C2)nn1` [Compound 39, (6-((4-((5-Cyclopentyl-1H-pyrazol-3-yl)amino)pyrimidin-2-yl)amino)-2-azaspiro[3.3]heptan-2-yl)(1-methyl-1H-1,2,3-triazol-4-yl)methanone], for which the Dmax at 0.5 µM is 20 to 49% in assay [1] (L-363 cells, 24 h, 0.5 μM) and 20 to 49% in assay [2] (SKNBE2 cells, 24 h, 0.5 μM). In addition, the Dmax at 1 µM in assay [1] (L-363 cells, 24 h, 1 μM) was 20 to 49%; in assay [2] (SKNBE2 cells, 24 h), below 20%. Moreover, the Dmax at 3 µM in assay [1] (L-363 cells, 24 h, 3 μM) was 20 to 49%; in assay [2] (SKNBE2 cells, 24 h, 3 μM) it was 80 to 100%. Besides, the Dmax at 6 µM in assay [1] (L-363 cells, 24 h, 6 μM) lay within 80 to 100%; in assay [2] (SKNBE2 cells, 24 h, 6 μM), 80 to 100%.

Consider `CN1CC2(CCC(Nc3nccc(Nc4cc(C5CCCC5)[nH]n4)n3)CC2)C1` [Compound 20, N^4-(5-Cyclopentyl-1H-pyrazol-3-yl)-N^2-(2-methyl-2-azaspiro[3.5]nonan-7-yl)pyrimidine-2,4-diamine], for which the Dmax at 0.5 µM was 80 to 100% in assay [1] (L-363 cells, 24 h, 0.5 μM) and 80 to 100% in assay [2] (SKNBE2 cells, 24 h, 0.5 μM). The Dmax at 1 µM in assay [1] (L-363 cells, 24 h, 1 μM) fell in the range of 80 to 100%; in assay [2] (SKNBE2 cells, 24 h), 80 to 100%. Also, the Dmax at 3 µM in assay [1] (L-363 cells, 24 h, 3 μM) is 80 to 100%; in assay [2] (SKNBE2 cells, 24 h, 3 μM), 80 to 100%. Further, the Dmax at 6 µM in assay [1] (L-363 cells, 24 h, 6 μM) was in the range of 80 to 100%; in assay [2] (SKNBE2 cells, 24 h, 6 μM), 80 to 100%.

Regarding `c1cc(Nc2cc(C3CCCC3)[nH]n2)nc(NC2CC3(CNC3)C2)n1` [Compound 30, N^4-(5-cyclopentyl-1H-pyrazol-3-yl)-N^2-(2-azaspiro[3.3]heptan-6-yl)pyrimidine-2,4-diamine], the Dmax at 0.5 µM in assay [1] (L-363 cells, 24 h, 0.5 μM) is 80 to 100%; in assay [2] (SKNBE2 cells, 24 h, 0.5 μM) it was below 20%. For the same molecule, the Dmax at 1 µM is 80 to 100% in assay [1] (L-363 cells, 24 h, 1 μM) and below 20% in assay [2] (SKNBE2 cells, 24 h). Further, the Dmax at 3 µM in assay [1] (L-363 cells, 24 h, 3 μM) lay in the range of 80 to 100%. The Dmax at 6 µM lay within 80 to 100% in assay [1] (L-363 cells, 24 h, 6 μM) and 50 to 79% in assay [2] (SKNBE2 cells, 24 h, 6 μM).

Regarding `CN1CC2(CCC(N(C)c3nccc(Nc4cc(C5CC5)[nH]n4)n3)CC2)C1` [Compound 49, N4-(5-Cyclopropyl-1H-pyrazol-3-yl)-N2-methyl-N2-(2-methyl-2-azaspiro[3.5]nonan-7-yl)pyrimidine-2,4-diamine], the Dmax at 0.5 µM in assay [1] (L-363 cells, 24 h, 0.5 μM) was in the range of 50 to 79%; in assay [2] (SKNBE2 cells, 24 h, 0.5 μM) it was 50 to 79%. Moreover, the Dmax at 1 µM in assay [1] (L-363 cells, 24 h, 1 μM) fell in the range of 80 to 100%; in assay [2] (SKNBE2 cells, 24 h), 80 to 100%. The Dmax at 3 µM in assay [1] (L-363 cells, 24 h, 3 μM) lay in the range of 80 to 100%; in assay [2] (SKNBE2 cells, 24 h, 3 μM) it was 80 to 100%. Moreover, the Dmax at 6 µM is 80 to 100% in assay [1] (L-363 cells, 24 h, 6 μM) and 80 to 100% in assay [2] (SKNBE2 cells, 24 h, 6 μM).

Take `c1cc(Nc2cc(C3CC3)[nH]n2)nc(NC2CCNCC2)n1` [Compound 29]: the Dmax at 0.5 µM in assay [1] (L-363 cells, 24 h, 0.5 μM) is 50 to 79%. Further, the Dmax at 1 µM in assay [1] (L-363 cells, 24 h, 1 μM) is 80 to 100%; in assay [2] (SKNBE2 cells, 24 h), below 20%. The Dmax at 3 µM in assay [1] (L-363 cells, 24 h, 3 μM) lay within 80 to 100%; in assay [2] (SKNBE2 cells, 24 h, 3 μM), 80 to 100%. The Dmax at 6 µM lay in the range of 80 to 100% in assay [1] (L-363 cells, 24 h, 6 μM) and 80 to 100% in assay [2] (SKNBE2 cells, 24 h, 6 μM).

In the case of `CN1CCC(CNc2nccc(Nc3cc(C4CCCC4)[nH]n3)n2)CC1` [Compound 1], the Dmax at 3 µM in assay [1] (L-363 cells, 24 h, 3 μM) is below 20%; in assay [2] (SKNBE2 cells, 24 h, 3 μM) it was 20 to 49%. Besides, the Dmax at 6 µM was below 20% in assay [1] (L-363 cells, 24 h, 6 μM) and 80 to 100% in assay [2] (SKNBE2 cells, 24 h, 6 μM). For the same molecule, the Dmax at 0.5 µM in assay [2] (SKNBE2 cells, 24 h, 0.5 μM) lay within 20 to 49%. The Dmax at 1 µM in assay [2] (SKNBE2 cells, 24 h) was below 20%.

Consider `CN1CC2(CCC(Nc3nccc(Nc4cc(C5CC5)[nH]n4)n3)CC2)C1` [Compound 34, N^4-(5-cyclopropyl-1H-pyrazol-3-yl)-N^2-(2-methyl-2-azaspiro[3.5]nonan-7-yl)pyrimidine-2,4-diamine], for which the Dmax at 0.5 µM in assay [1] (L-363 cells, 24 h, 0.5 μM) was below 20%; in assay [2] (SKNBE2 cells, 24 h, 0.5 μM) it was 80 to 100%. The Dmax at 1 µM in assay [1] (L-363 cells, 24 h, 1 μM) lay within 50 to 79%; in assay [2] (SKNBE2 cells, 24 h), 80 to 100%. Also, the Dmax at 3 µM in assay [1] (L-363 cells, 24 h, 3 μM) fell in the range of 80 to 100%; in assay [2] (SKNBE2 cells, 24 h, 3 μM) it was 80 to 100%. Also, the Dmax at 6 µM in assay [1] (L-363 cells, 24 h, 6 μM) was in the range of 80 to 100%; in assay [2] (SKNBE2 cells, 24 h, 6 μM), 80 to 100%.
